Laboratory results as given in ChEMBL document CHEMBL3243996, “[1-Deaminopenicillamine,4-threonine]oxytocin, a potent inhibitor of oxytocin” (J Med Chem, 1978).
Active and inactive are the calls of the source. No cut-off for these calls is given here. Starred links: 1 amine or outer side, 2 acyl side, 3 side chain; linkers in the order of their positions; H or OH if unused. Positions of bridges follow the written chain, without caps; N, C: chain ends. Residues, ends and D or L forms follow the SMILES beside them. X2 = O=C(CC1(S[*:2])CCCCC1)[*:1]; X1 = CC(C)(CC(=O)[*:1])S[*:2]

Experiments:
[1] = molecular target: T1, Oxytocin receptor (Rattus norvegicus) (UniProt P70536); test: (§1) Antagonist activity at oxytocin receptor in rat uterus by Schild's method in absence of Mg2+; type: tissue-based
T1 sequence (whole entry): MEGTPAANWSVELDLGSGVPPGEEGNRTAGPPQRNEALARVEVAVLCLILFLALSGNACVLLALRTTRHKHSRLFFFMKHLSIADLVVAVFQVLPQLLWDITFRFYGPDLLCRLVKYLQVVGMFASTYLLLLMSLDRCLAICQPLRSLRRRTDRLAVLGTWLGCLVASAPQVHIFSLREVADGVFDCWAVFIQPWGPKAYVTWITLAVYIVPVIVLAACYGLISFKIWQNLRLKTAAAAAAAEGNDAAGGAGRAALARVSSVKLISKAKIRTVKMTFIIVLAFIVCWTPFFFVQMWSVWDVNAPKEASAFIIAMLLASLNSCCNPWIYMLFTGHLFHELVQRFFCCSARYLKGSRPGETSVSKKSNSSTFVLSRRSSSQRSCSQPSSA

Oxytocin receptor [2] = molecular target: T2, Oxytocin receptor (Rattus norvegicus, UniProt P70536); test: as §1; type: tissue-based; settings: read-out: pA2 (converted)
T2 sequence (P70536 whole entry): T1 sequence (whole entry)

Oxytocin receptor [3] = molecular target: T2, Oxytocin receptor; test: (§2) Antagonist activity at oxytocin receptor in rat uterus by average effective molar concentration based analysis; type: tissue-based; settings: read-out: pA2 (converted)
[4] = molecular target: T1, Oxytocin receptor (Rattus norvegicus); test: as §2; type: tissue-based
[5] = (§3) Antagonist activity at rat vasopressin receptor
[6] = molecular target: T1, Oxytocin receptor (Rattus norvegicus); test: Agonist activity at oxytocin receptor in rat uterus; type: tissue-based
Rattus norvegicus [7] = species: Rattus norvegicus; test: Agonist activity at rat vasopressin receptor
Rattus norvegicus [8] = species: Rattus norvegicus; test: as §3

Compound	A2 [1] [×10⁻⁸ M]	Kb (Oxytocin receptor [2]) [nM]	Kb (Oxytocin receptor [3]) [nM]	further results
CC[C@H](C)[C@@H]1NC(=O)[C@H](Cc2ccc(O)cc2)NC(=O)CC(C)(C)SSC[C@@H](C(=O)N2CCC[C@H]2C(=O)N[C@@H](CC(C)C)C(=O)NCC(N)=O)NC(=O)[C@H](CC(N)=O)NC(=O)[C@H]([C@@H](C)O)NC1=O (stereo in doubt; 1b) [listing 1 of 2 here]	4.3	–	–	–
CC[C@H](C)[C@@H]1NC(=O)[C@H](Cc2ccc(O)cc2)NC(=O)CC(C)(C)SSC[C@@H](C(=O)N2CCC[C@H]2C(=O)N[C@@H](CC(C)C)C(=O)NCC(N)=O)NC(=O)[C@H](CC(N)=O)NC(=O)[C@H](CCC(N)=O)NC1=O (YIQNCPLG-NH2; linker N-5 via X1)	9.1	72.4	115	A2 [4]: 11.6 ×10⁻⁸ M; pA2 [5]: 6.27
CC[C@H](C)[C@@H]1NC(=O)[C@H](Cc2ccc(O)cc2)NC(=O)CC(C)(C)SSC[C@@H](C(=O)N2CCC[C@H]2C(=O)N[C@@H](CC(C)C)C(=O)NCC(N)=O)NC(=O)[C@H](CC(N)=O)NC(=O)[C@H]([C@@H](C)O)NC1=O (stereo in doubt; 1a) [listing 1 of 2 here]	4	–	–	Activity [6]: inactive; Activity (Rattus norvegicus [7]): inactive
CC[C@H](C)[C@@H]1NC(=O)[C@H](Cc2ccc(O)cc2)NC(=O)[C@@H](N)C(C)(C)SSC[C@@H](C(=O)N2CCC[C@H]2C(=O)N[C@@H](CC(C)C)C(=O)NCC(N)=O)NC(=O)[C@H](CC(N)=O)NC(=O)[C@H](CCC(N)=O)NC1=O	–	–	138	–
CC[C@H](C)[C@@H]1NC(=O)[C@H](Cc2ccc(O)cc2)NC(=O)CC(C)(C)SSC[C@@H](C(=O)N2CCC[C@H]2C(=O)N[C@@H](CC(C)C)C(=O)NCC(N)=O)NC(=O)[C@H](CC(N)=O)NC(=O)[C@H]([C@@H](C)O)NC1=O (stereo in doubt; 1a) [listing 2 of 2 here]	–	34.7	–	pA2 [5]: 6.67
CC[C@H](C)[C@@H]1NC(=O)[C@H](Cc2ccc(O)cc2)NC(=O)CC(C)(C)SSC[C@@H](C(=O)N2CCC[C@H]2C(=O)N[C@@H](CC(C)C)C(=O)NCC(N)=O)NC(=O)[C@H](CC(N)=O)NC(=O)[C@H]([C@@H](C)O)NC1=O (stereo in doubt; 1b) [listing 2 of 2 here]	–	25.7	–	–
CC[C@H](C)[C@@H]1NC(=O)[C@H](Cc2ccc(O)cc2)NC(=O)CC2(CCCCC2)SSC[C@@H](C(=O)N2CCC[C@H]2C(=O)N[C@@H](CC(C)C)C(=O)NCC(N)=O)NC(=O)[C@H](CC(N)=O)NC(=O)[C@H](CCC(N)=O)NC1=O (YIQNCPLG-NH2; linker N-5 via X2)	–	37.2	37.2	A2 [4]: 3.7 ×10⁻⁸ M; Activity (Rattus norvegicus [8]): Active
